In article PMC11820055, “Human Pharmacokinetic Profiling and Comparative Analysis of Mangiferin and Its Monosodium Derivative from Mangifera indica Extracts Using UHPLC-MS/MS with ^1H NMR and MALDI-TOF Confirmation” (Molecules, 2025):
Converted amounts (≈) assume the structure as drawn. Structures can show the parent of a compound that is named as a salt. Where two headings read alike, the source gives them in different places.

Legend:
[1] = Stability of mangiferin in human plasma QC samples; assay type: in vitro ADME; conditions: for Stability (%, Mean ± RSD) Autosampler / Stability (%, Mean ± RSD) Room Temp. / Stability (%, Mean ± RSD) Freeze–Thaw: human plasma QC, n = 6; for Stability (%, Mean ± RSD) Autosampler: autosampler 4 h at 12 °C; for Stability (%, Mean ± RSD) Room Temp.: room temperature for 4 h; for Stability (%, Mean ± RSD) Freeze–Thaw: three cycles of freezing (−80 °C) and thawing (20 °C)
Protocol: Quality control (QC) samples were prepared in the same manner and evaluated at low, medium, and high concentrations: 50, 500, and 1000 ng/mL. Blank plasma samples were also included in the injection series to account for any potential carryover. The stability of mangiferin in human plasma was evaluated by analyzing the same three levels of QC samples (n = 6) after storage at room temperature for 4 h, in the autosampler for 4 h at 12 °C, and after three cycles of freezing (−80 °C) and thawing (20 °C).

[2] = design: method as in earlier work; conditions: pure mangiferin; cited from earlier work
[3] = design: method as in PMID 26434292; conditions: human plasma, mangiferin >90% purity, cited from earlier work
[4] = cited from earlier work
mice = conditions: cited from earlier work
[5] = design: method as in doi:10.1155/2019/9272710; conditions: male Sprague Dawley rats; cited from earlier work
rats = conditions: dose of 400 mg of the purified salt; cited from earlier work

O=c1c2cc(O)c(O)cc2oc2cc(O)c([C@@H]3O[C@H](CO)[C@@H](O)[C@H](O)[C@H]3O)c(O)c12 [Mangiferin]
stability throughout the analytical process ([1]; human plasma QC samples): stable | Stability (%, Mean ± RSD) Autosampler ([1]; 1.000 ng/mL as printed): 101.63 ± 8.50% | Stability (%, Mean ± RSD) Room Temp. ([1]; 1.000 ng/mL as printed): 101.75 ± 8.11% | Stability (%, Mean ± RSD) Freeze–Thaw ([1]; 1.000 ng/mL as printed): 102.64 ± 1.05% | Stability (%, Mean ± RSD) Autosampler ([1]; 50 ng/mL): 109.92 ± 2.77% | Stability (%, Mean ± RSD) Room Temp. ([1]; 50 ng/mL): 103.10 ± 3.66% | Stability (%, Mean ± RSD) Freeze–Thaw ([1]; 50 ng/mL): 108.60 ± 3.87% | Stability (%, Mean ± RSD) Autosampler ([1]; 500 ng/mL): 102.02 ± 8.81% | Stability (%, Mean ± RSD) Room Temp. ([1]; 500 ng/mL): 101.27 ± 9.08% | Stability (%, Mean ± RSD) Freeze–Thaw ([1]; 500 ng/mL): 101.68 ± 0.91% | aqueous solubility [2]: 111 µg/mL (≈ 263 µM) | Cmax ([3]; 100 mg oral dose): 19.94 ng/mL | Cmax ([3]; 900 mg oral dose): 38.64 ng/mL | increase of exposure on inhibition of the transporter P-gp ([4]; pure mangiferin): approximately threefold

O=c1c2cc(O)c(O)cc2oc2cc(O)c([C@@H]3O[C@H](CO)[C@@H](O)[C@H](O)[C@H]3O)c(O)c12 [mangiferin monosodium salt, Monosodium mangiferin]
maximum tolerated dose (MTD) (mice): 12,000 mg/kg | relative bioavailability of the salt vs pure mangiferin based on AUC0–∞ [5]: 5.7 times | safety in rats (rats): generally safe

O=c1c2cc(O)c(O)cc2oc2cc(O)cc(O)c12 [norathyriol]
Tmax ([4]; in vivo): ~15 h | absorption of norathyriol as fraction of the mangiferin dose ([4]; in vivo): approximately 0.1%
